Holding throughout (assay type): in vivo
Assay [1] deals with Helicoverpa virescens. The experiment in a line: Tobacco budworm test (TB). The conditions noted are these: Heliothis virescens, 336 h; 0.2 mL of 3000 ppm stock solution on diet cell surface; second instar larva; after 14 days; corrected by Abbott's formula; read-out: Percent Control TB (tobacco budworm). How it is done:
In the following examples, a stock solution for the compounds of the present invention was prepared at 3000 ppm by dissolving 0.24 gram of each compound to be tested in eight mL of acetone and adding 72 mL of distilled water plus three drops of ethoxylated sorbitan monolaurate, a wetting agent. […] For each example that follows, the stock solution was used and the specificized dilutions made. All the tests discussed below, which involved treatment with compounds of this invention, were always repeated with controls, in which the active compound was not provided, to permit a comparison upon which the percent control was calculated.
For each compound tested, 0.2 mL of the stock solution prepared asdescribed above, was pipetted onto the surface of each of five diet cells, allowed to spread over the surfaces and air dried for two hours. Then a second instar Helicoverpa virescens larva was introduced into each cell. After 14 days, the number of living larvae was determined for each treatment and percent control, corrected by Abbott's formula, was calculated.

In assay [2] the test system is Tetranychus urticae Koch. The experiment in a line: Mite adulticide test (MI). The conditions noted are these: 120 h, 1000 ppm spray to run off on cowpea leaves, adult mites placed 1 day after treatment, live mites counted five days later, read-out: Percent Control MI (mite adulticide). How it is done:
In the following examples, a stock solution for the compounds of the present invention was prepared at 3000 ppm by dissolving 0.24 gram of each compound to be tested in eight mL of acetone and adding 72 mL of distilled water plus three drops of ethoxylated sorbitan monolaurate, a wetting agent. […] For each example that follows, the stock solution was used and the specificized dilutions made. All the tests discussed below, which involved treatment with compounds of this invention, were always repeated with controls, in which the active compound was not provided, to permit a comparison upon which the percent control was calculated. One day before treatment of cowpea primary leaves with the test solutions, a “Figure 8” configuration of tree tanglefoot was applied to each of two cowpea primary leaves, one from each of two plants in a pot. The circle nearer the stem was designated for the mite ovicide test and the circle further from the stem was designated for the mite adulticide test. Groups of adult mites (Tetranychus urticae Koch) were transferred into ovicide circles one day before treatment and the females were allowed to deposit eggs until one hour before treatment, at which point all the adults were removed. The plants were then sprayed to run off with a 1000 ppm of solution diluted from the 3000 ppm stock solution. One day following treatment of the plants with the test solution, groups of approximately 25 adult mites were transferred into the adulticide rings. Five days later, these rings were examined for live mites remaining on the leaves. The percent control was estimated based on the number of mites surviving on the control plants.

Assay [3] concerns Tetranychus urticae Koch. In words: Mite ovicide test (MIOV). The conditions noted are these: 216 h, 1000 ppm spray to run off on cowpea leaves, unhatched eggs examined nine days following treatment, read-out: Percent Control MIOV (mite ovicide). The method, then: In the following examples, a stock solution for the compounds of the present invention was prepared at 3000 ppm by dissolving 0.24 gram of each compound to be tested in eight mL of acetone and adding 72 mL of distilled water plus three drops of ethoxylated sorbitan monolaurate, a wetting agent. […] For each example that follows, the stock solution was used and the specificized dilutions made. All the tests discussed below, which involved treatment with compounds of this invention, were always repeated with controls, in which the active compound was not provided, to permit a comparison upon which the percent control was calculated. One day before treatment of cowpea primary leaves with the test solutions, a “Figure 8” configuration of tree tanglefoot was applied to each of two cowpea primary leaves, one from each of two plants in a pot. The circle nearer the stem was designated for the mite ovicide test and the circle further from the stem was designated for the mite adulticide test. Groups of adult mites (Tetranychus urticae Koch) were transferred into ovicide circles one day before treatment and the females were allowed to deposit eggs until one hour before treatment, at which point all the adults were removed. The plants were then sprayed to run off with a 1000 ppm of solution diluted from the 3000 ppm stock solution. Nine days following treatment the ovicide rings were examined for unhatched eggs and living immature mites. The percent control was estimated based on the number of unhatched eggs.

Regarding `CC/C(=N\Nc1cc(-c2ccccc2)ccc1OC)[N+](=O)[O-]` [Compound 1, Propanal, 1-nitro, (4-methoxy-[1,1′-biphenyl]-3-yl)hydrazone], the pest or weed control at 3000 µg/mL in assay [1] was 64%. For the same compound, the pest or weed control at 1000 ppm in assay [2] and in assay [3] was 100% in each case.
Turning to `COc1ccc(-c2ccccc2)cc1N/N=C/[N+](=O)[O-]` [Compound 2], in assay [1], the pest or weed control at 3000 µg/mL is 100%. The pest or weed control at 1000 ppm in assay [2] and in assay [3] was 0% each time.
Regarding `CCC/C(=N\Nc1cc(-c2ccccc2)ccc1OC)[N+](=O)[O-]` [Compound 3], the pest or weed control at 3000 µg/mL in assay [1] amounted to 0%. Moreover, the pest or weed control at 1000 ppm in assay [2] and in assay [3] was 100% in each case.
Consider `COc1ccc(-c2ccccc2)cc1N/N=C(/C(C)C)[N+](=O)[O-]` [Compound 4], for which the pest or weed control at 3000 µg/mL in assay [1] turned out to be 0%. The figures for the pest or weed control at 1000 ppm in assay [2] and in assay [3] were 100% and 0%, respectively.
On to `CC/C(=N\Nc1cccc(-c2ccccc2)c1)[N+](=O)[O-]` [Compound 5], for which, in assay [1], the pest or weed control at 3000 µg/mL came out at 0%. The pest or weed control at 1000 ppm in assay [2] was found to be 100%; in assay [3], 0%.
Turning to `CCCCCOc1ccc(-c2ccccc2)cc1N/N=C(/CC)[N+](=O)[O-]` [Compound 6], the pest or weed control at 3000 µg/mL in assay [1] worked out at 0%. For the same compound, the figures for the pest or weed control at 1000 ppm in assay [2] and in assay [3] were 100% and 30%, respectively.
The matching figures for `CC/C(=N/Nc1cc(-c2ccccc2)ccc1C)[N+](=O)[O-]` [Compound 7]: 0%, 100% and 70%.
Consider `CC(C)C/C(=N\Nc1cccc(-c2ccccc2)c1)[N+](=O)[O-]` [Compound 8], for which the pest or weed control at 3000 µg/mL in assay [1] was found to be 40%. The values for the pest or weed control at 1000 ppm in assay [2] and in assay [3] were 100% and 0%, respectively.
The matching figures for `CC/C(=N/Nc1cc(OC)ccc1-c1ccccc1)[N+](=O)[O-]` [Compound 9]: 14%, 70% and 70%.
The corresponding values for `C/C(=N\Nc1ccc2c(c1)Cc1ccccc1-2)[N+](=O)[O-]` [Compound 10] are 0%, 0% and 0%.
Turning to `CC/C(=N\Nc1ccc2c(c1)c1ccccc1n2CC)[N+](=O)[O-]` [Compound 11], in assay [1], the pest or weed control at 3000 µg/mL was determined as 57%. Further, the pest or weed control at 1000 ppm in assay [2] and in assay [3] was 30% throughout.
As for `CC/C(=N/Nc1ccc(Cl)nc1)[N+](=O)[O-]` [Compound 12], the pest or weed control at 3000 µg/mL in assay [1] was 100%. In addition, the pest or weed control at 1000 ppm in assay [2] stood at 100%; in assay [3], 70%.

These data come from US7592374B2, “Insecticidal nitromethylene compounds” (Crompton Corporation, priority 2005, dated 2009).
